Experimental data reported in ChEMBL document CHEMBL3885881, “DrugMatrix”.

Species on record: Rattus norvegicus
Assay: DrugMatrix - Regimen: Daily Repeat
Format: toxicity, organism-based, Sprague-Dawley
Design: regimen Daily Repeat, gender Male, age 6-8 weeks
Conditions: in vivo, po, route oral GAVAGE, vehicle 100 % WATER; for ABSOLUTE BASOPHIL / ABSOLUTE EOSINOPHIL / ABSOLUTE LYMPHOCYTE / ABSOLUTE MONOCYTE / ABSOLUTE SEGMENTED NEUTROPHIL / BASOPHIL / EOSINOPHIL / ERYTHROCYTE COUNT / HEMATOCRIT / HEMOGLOBIN / LEUKOCYTE COUNT / LYMPHOCYTE / MEAN CORPUSCULAR HEMOGLOBIN / MEAN CORPUSCULAR HEMOGLOBIN CONCENTRATION / MEAN CORPUSCULAR VOLUME / MONOCYTE / NEUTROPHIL / NUCLEATED RED BLOOD CELLS / PLATELET COUNT: tissue Blood; for ALANINE AMINOTRANSFERASE / ALBUMIN / ALKALINE PHOSPHATASE / ASPARTATE AMINOTRANSFERASE / BLOOD UREA NITROGEN / CARBON DIOXIDE / CHLORIDE / CHOLESTEROL / CREATINE PHOSPHOKINASE / CREATININE / GLUCOSE / LACTATE DEHYDROGENASE / LIPASE / PHOSPHORUS / POTASSIUM / SODIUM / TOTAL BILIRUBIN / TOTAL PROTEIN / URIC ACID: tissue Plasma
[1] = 4 mg/kg, 72 h, dose level Low, time 3 day
[2] = 4 mg/kg, 120 h, dose level Low, time 5 day
[3] = 1100 mg/kg, 72 h, dose level High, time 3 day
[4] = 1100 mg/kg, 120 h, dose level High, time 5 day

SMILES: COc1ccnc(C[S+]([O-])c2nc3ccc(OC(F)F)cc3[nH]2)c1OC (configuration not stated) [PANTOPRAZOLE]
- ABSOLUTE BASOPHIL [1]: 0 CELLS/uL
- ABSOLUTE EOSINOPHIL [1]: 0 CELLS/uL
- ABSOLUTE LYMPHOCYTE [1]: 12700.33 CELLS/uL
- ABSOLUTE MONOCYTE [1]: 129 CELLS/uL
- ABSOLUTE SEGMENTED NEUTROPHIL [1]: 970.67 CELLS/uL
- BASOPHIL [1]: 0%
- EOSINOPHIL [1]: 0%
- ERYTHROCYTE COUNT [1]: 5.41 x10E6/uL
- HEMATOCRIT [1]: 34.33%
- HEMOGLOBIN [1]: 13.7 G/DL
- LEUKOCYTE COUNT [1]: 13.8 x10E3/uL
- LYMPHOCYTE [1]: 91.33%
- MEAN CORPUSCULAR HEMOGLOBIN [1]: 25.37 pg
- MEAN CORPUSCULAR HEMOGLOBIN CONCENTRATION [1]: 39.93 G/DL
- MEAN CORPUSCULAR VOLUME [1]: 63.43 fL
- MONOCYTE [1]: 1%
- NEUTROPHIL [1]: 7.67%
- NUCLEATED RED BLOOD CELLS [1]: 0.67 /100WBC
- PLATELET COUNT [1]: 1322.33 x10E3/uL
- ALANINE AMINOTRANSFERASE [1]: 47 u/L
- ALBUMIN [1]: 4.07 G/DL
- ALKALINE PHOSPHATASE [1]: 370.67 u/L
- ASPARTATE AMINOTRANSFERASE [1]: 94 u/L
- BLOOD UREA NITROGEN [1]: 15.67 mg/dL
- CARBON DIOXIDE [1]: 25.67 mmol/L
- CHLORIDE [1]: 102.67 MEQ/L
- CHOLESTEROL [1]: 70.33 mg/dL
- CREATINE PHOSPHOKINASE [1]: 679.33 u/L
- CREATININE [1]: 0.14 mg/dL
- GLUCOSE [1]: 153.67 mg/dL
- LACTATE DEHYDROGENASE [1]: 404.33 u/L
- LIPASE [1]: 9 u/L
- PHOSPHORUS [1]: 13.8 mg/dL
- POTASSIUM [1]: 7.04 MEQ/L
- SODIUM [1]: 146.43 MEQ/L
- TOTAL BILIRUBIN [1]: 0.23 mg/dL
- TOTAL PROTEIN [1]: 5.67 G/DL
- URIC ACID [1]: 1.7 mg/dL
- ABSOLUTE BASOPHIL [2]: 0 CELLS/uL
- ABSOLUTE EOSINOPHIL [2]: 43.33 CELLS/uL
- ABSOLUTE LYMPHOCYTE [2]: 13938.33 CELLS/uL
- ABSOLUTE MONOCYTE [2]: 59 CELLS/uL
- ABSOLUTE SEGMENTED NEUTROPHIL [2]: 859.33 CELLS/uL
- BASOPHIL [2]: 0%
- EOSINOPHIL [2]: 0.33%
- ERYTHROCYTE COUNT [2]: 5.27 x10E6/uL
- HEMATOCRIT [2]: 34.2%
- HEMOGLOBIN [2]: 13.7 G/DL
- LEUKOCYTE COUNT [2]: 14.9 x10E3/uL
- LYMPHOCYTE [2]: 93.33%
- MEAN CORPUSCULAR HEMOGLOBIN [2]: 26.07 pg
- MEAN CORPUSCULAR HEMOGLOBIN CONCENTRATION [2]: 40.07 G/DL
- MEAN CORPUSCULAR VOLUME [2]: 65.03 fL
- MONOCYTE [2]: 0.33%
- NEUTROPHIL [2]: 6%
- NUCLEATED RED BLOOD CELLS [2]: 0.33 /100WBC
- PLATELET COUNT [2]: 1411.33 x10E3/uL
- ALANINE AMINOTRANSFERASE [2]: 54.67 u/L
- ALBUMIN [2]: 4.17 G/DL
- ALKALINE PHOSPHATASE [2]: 396 u/L
- ASPARTATE AMINOTRANSFERASE [2]: 114.33 u/L
- BLOOD UREA NITROGEN [2]: 17.67 mg/dL
- CARBON DIOXIDE [2]: 26 mmol/L
- CHLORIDE [2]: 102 MEQ/L
- CHOLESTEROL [2]: 60.67 mg/dL
- CREATINE PHOSPHOKINASE [2]: 690.67 u/L
- CREATININE [2]: 0.13 mg/dL
- GLUCOSE [2]: 144 mg/dL
- LACTATE DEHYDROGENASE [2]: 666.67 u/L
- LIPASE [2]: 9 u/L
- PHOSPHORUS [2]: 14.27 mg/dL
- POTASSIUM [2]: 6.77 MEQ/L
- SODIUM [2]: 143.77 MEQ/L
- TOTAL BILIRUBIN [2]: 0.2 mg/dL
- TOTAL PROTEIN [2]: 5.8 G/DL
- URIC ACID [2]: 1.57 mg/dL
- ABSOLUTE BASOPHIL [3]: 0 CELLS/uL
- ABSOLUTE EOSINOPHIL [3]: 0 CELLS/uL
- ABSOLUTE LYMPHOCYTE [3]: 16363.67 CELLS/uL
- ABSOLUTE MONOCYTE [3]: 197 CELLS/uL
- ABSOLUTE SEGMENTED NEUTROPHIL [3]: 1639.33 CELLS/uL
- BASOPHIL [3]: 0%
- EOSINOPHIL [3]: 0%
- ERYTHROCYTE COUNT [3]: 5.69 x10E6/uL
- HEMATOCRIT [3]: 35.37%
- HEMOGLOBIN [3]: 14 G/DL
- LEUKOCYTE COUNT [3]: 18.2 x10E3/uL
- LYMPHOCYTE [3]: 90.33%
- MEAN CORPUSCULAR HEMOGLOBIN [3]: 24.67 pg
- MEAN CORPUSCULAR HEMOGLOBIN CONCENTRATION [3]: 39.57 G/DL
- MEAN CORPUSCULAR VOLUME [3]: 62.3 fL
- MONOCYTE [3]: 1%
- NEUTROPHIL [3]: 8.67%
- NUCLEATED RED BLOOD CELLS [3]: 0.33 /100WBC
- PLATELET COUNT [3]: 1283.67 x10E3/uL
- ALANINE AMINOTRANSFERASE [3]: 51.67 u/L
- ALBUMIN [3]: 4.03 G/DL
- ALKALINE PHOSPHATASE [3]: 372.67 u/L
- ASPARTATE AMINOTRANSFERASE [3]: 89 u/L
- BLOOD UREA NITROGEN [3]: 17 mg/dL
- CARBON DIOXIDE [3]: 29 mmol/L
- CHLORIDE [3]: 98.67 MEQ/L
- CHOLESTEROL [3]: 105.67 mg/dL
- CREATINE PHOSPHOKINASE [3]: 255 u/L
- CREATININE [3]: 0.16 mg/dL
- GLUCOSE [3]: 134.33 mg/dL
- LACTATE DEHYDROGENASE [3]: 182.67 u/L
- LIPASE [3]: 11 u/L
- PHOSPHORUS [3]: 12.2 mg/dL
- POTASSIUM [3]: 7.39 MEQ/L
- SODIUM [3]: 142.4 MEQ/L
- TOTAL BILIRUBIN [3]: 0.23 mg/dL
- TOTAL PROTEIN [3]: 5.67 G/DL
- URIC ACID [3]: 1.67 mg/dL
- ABSOLUTE BASOPHIL [4]: 0 CELLS/uL
- ABSOLUTE EOSINOPHIL [4]: 57.33 CELLS/uL
- ABSOLUTE LYMPHOCYTE [4]: 9481.67 CELLS/uL
- ABSOLUTE MONOCYTE [4]: 24 CELLS/uL
- ABSOLUTE SEGMENTED NEUTROPHIL [4]: 670.33 CELLS/uL
- BASOPHIL [4]: 0%
- EOSINOPHIL [4]: 0.33%
- ERYTHROCYTE COUNT [4]: 5.57 x10E6/uL
- HEMATOCRIT [4]: 33.33%
- HEMOGLOBIN [4]: 13.7 G/DL
- LEUKOCYTE COUNT [4]: 10.23 x10E3/uL
- LYMPHOCYTE [4]: 91.67%
- MEAN CORPUSCULAR HEMOGLOBIN [4]: 24.57 pg
- MEAN CORPUSCULAR HEMOGLOBIN CONCENTRATION [4]: 41.13 G/DL
- MEAN CORPUSCULAR VOLUME [4]: 59.83 fL
- MONOCYTE [4]: 0.33%
- NEUTROPHIL [4]: 7.67%
- NUCLEATED RED BLOOD CELLS [4]: 0 /100WBC
- PLATELET COUNT [4]: 1302.33 x10E3/uL
- ALANINE AMINOTRANSFERASE [4]: 40.33 u/L
- ALBUMIN [4]: 4.33 G/DL
- ALKALINE PHOSPHATASE [4]: 318 u/L
- ASPARTATE AMINOTRANSFERASE [4]: 84 u/L
- BLOOD UREA NITROGEN [4]: 14.67 mg/dL
- CARBON DIOXIDE [4]: 27 mmol/L
- CHLORIDE [4]: 102.5 MEQ/L
- CHOLESTEROL [4]: 129.33 mg/dL
- CREATINE PHOSPHOKINASE [4]: 241.33 u/L
- CREATININE [4]: 0.19 mg/dL
- GLUCOSE [4]: 122.33 mg/dL
- LACTATE DEHYDROGENASE [4]: 148 u/L
- LIPASE [4]: 11.67 u/L
- PHOSPHORUS [4]: 9.87 mg/dL
- POTASSIUM [4]: 5.71 MEQ/L
- SODIUM [4]: 145.65 MEQ/L
- TOTAL BILIRUBIN [4]: 0.27 mg/dL
- TOTAL PROTEIN [4]: 6.13 G/DL
- URIC ACID [4]: 0.47 mg/dL
